Reference: patent US20250199015A1, “CYCLIN-DEPENDENT KINASE 2 INHIBITORS FOR MEDICAL TREATMENT” (INCYCLIX BIO, LLC, priority 2022, published 2025)
Marks after values point to notes of the source that are not given here.

Key:
[1] = Salt screen storage at 40° C./75% RH, XRPD form; type: physicochemical; conditions: ca. 24 hours
Experimental: XRPD analysis was carried out on any isolated solids or gums as described in Example 10 below. The XRPD plate, and the isolated solids, were dried at 40° C. for ca. 24 hours and re-analyzed by XRPD. The XRPD plate was further dried at 40° C./75% RH for ca. 24 hours and XRPD analysis was repeated.
After three days, observations were recorded and solids were isolated by centrifugation. The wet solids were analyzed by XRPD. Solids were dried at 40° C. under vacuum for 72 hours and re-analyzed by XRPD. Solids were dried at 40° C./75% RH for 18 hours and re-analyzed by XRPD.

H526 cells = test: CellTiter Glo cell proliferation assay (single agent and chemotherapy combination); type: cell-based, human; conditions: 6 days
Experimental: (§1) Plates returned to incubator for six additional days. On day six post dosing, plates were removed and treated with CellTiter Glo reagent following manufacturer's specifications. Plates incubated 45 minutes at room temperature and run on a Biotek luminometer with 1 sec/well detection. Results were converted to Microsoft Excel and transferred to GraphPad Prism for analysis.
Cells were plated at 250 cells per well in white wall/clear bottom plates and incubated overnight. […] Plates returned to the incubator for six additional days. On day six post dosing, plates were removed and treated with CellTiter Glo reagent following manufacturer's specifications. Plates incubated 45 minutes at room temperature and run on a Biotek luminometer with 1 sec/well detection. Results were converted to Microsoft Excel and transferred to GraphPad Prism for analysis.
(§2) Dose curves ranged from 300 pM to 10 μM in triplicate and treatments lasted for 6 days. Plates were removed from incubator at each specified timepoint and treated with CellTiter-Glo (Promega, Inc) following manufacturer specifications. Plates were then read on CLARIOstar luminometer with 1 sec/well integration.
(§3) Dose curves ranged from 300 pM to 10 μM in triplicate and treatments lasted for 6 days. Plates were removed from incubator at each specified timepoint and treated with CellTiter-Glo (Promega, Inc) following manufacturer specifications. Plates were then read on CLARIOstar luminometer with 1 sec/well integration. Results were converted to Microsoft Excel and transferred to GraphPad Prism for Analysis.

SHP77 cells = test: as above; type: cell-based, human; conditions: 6 days
Experimental: as §1, §2, §3

H69 (NCIH69) cells = test: as above; type: cell-based, human; conditions: 6 days
Experimental: as §1, §2, §3

[2] = system: T47D parental and therapy-resistant cells; test: Cell cycle by BrdU flow cytometry in therapy-resistant cells; type: cell-based, human
Experimental: The therapy resistant cells were previously incubated with abemaciclib, fulvestrant, and/or palbociclib for prolonged periods to the point of developing drug resistance. Cells were plated in Corning 6 well tissue culture treated plates. Cells were treated for 7 days. Media was spiked with 10 μM BrdU prior to collection. Cells were washed in PBS, trypsinized, collected and centrifuged at 300 RCF for 5 mins. Cells were resuspended in cell culture media and transferred into a 96 well V-bottom plate with roughly 300,000 cells per well. Cells were then stained using the Near-IR Fixable Viability Stain (Invitrogen Cat. L34976) for 20 mins at room temperature, protected from light. Cells were fixed and permeabilized using eBioscience FoxP3/Transcription Factor Staining Buffer Set (Cat. 00-5523-00). DNA was denatured using 2N HCl+0.5% (v/v) Triton X-100 for 30 mins room temperature, agitating every 5-10 mins. The acid was neutralized using 0.1M Na2B4O7·10H2O (pH 8.5) followed by 0.5% BSA in PBS. Cells were then stained with BrdU antibody (Clone 3D4, BioLegend Cat. 364118) for 1 hour at room temperature. Prior to acquisition on the BD A3 Symphony, DNA was stained for 30 minutes using FxCycle Violet ReadyFlow Reagent.
Cell staining was then conducted to monitor cellular proliferation and perform cell cycle analysis of these therapy-resistant cells. […] Similarly, abemaciclib- and fulvestrant-resistant (LYFR) cells administered abemaciclib and fulvestrant were not substantially arrested in the G1 phase (FIG. 147H).

[3] = system: T47D human breast carcinoma cells; test: Crystal violet colony assay; type: cell-based; conditions: 300 nM, weeks 2-8
Experimental: (§4) The T47D human breast carcinoma cell line was grown in RPMI-1640/1× Glutamax/1× Insulin/10% fetal bovine serum and was plated at 10,000 cells/well in Corning 6-well tissue culture treated plates. Cells were incubated at 37° C. for 24 hours prior to addition of treatment. […] Plates were collected at week 2 and 3, at week 3, 2 plates with only palbociclib were switched to combination treatment. The remaining plates were collected at weeks 5 and 8. Collection was performed by washing wells with PBS before incubating 5 minutes with 0.1% crystal violet/20% methanol. Dye was removed and wells washed 4 times with PBS before being scanned at 1200 dpi. Image J was used to count the % area and colony size for each well (FIG. 8F-I). GraphPad Prism was used for analysis. Cells treated with DMSO control retained large colonies that inhabited the majority of the well surface area from week 3 beyond (FIG. 8F).
as §4, with “6 well tissue culture treated plates. The BT474 human breast carcinoma cell line was grown in DMEM/1× Glutamax/1× Insulin/10% fetal bovine serum and was plated at 25,000 cells/well in Corning 6 well” for “6-well”, “CDK4/6i” for “palbociclib”, “well. Graph pad” for “well (FIG. 8F-I). GraphPad Prism”, “analysis.” for “analysis. Cells treated with DMSO control retained large colonies that inhabited the majority of the well surface area from week 3 beyond (FIG. 8F).”
The T47D human breast carcinoma cell line was grown in RPMI-1640/1× Glutamax/1× Insulin/10% fetal bovine serum and was plated at 10,000 cells/well in Corning 6 well tissue culture treated plates. Cells were incubated at 37° C. for 24 hours prior to addition of treatment. […] Plates were collected at weeks 2 and 3. Collection was performed by washing wells with PBS before incubating 5 minutes with 0.1% crystal violet/20% methanol. Dye was removed and wells washed 4 times with PBS before being scanned at 1200 dpi. Image J was used to count the percent area and colony size for each well and Graph pad was used for analysis.

In the case of CS(=O)(=O)O.NS(=O)(=O)c1ccc(Nc2ncc3cc4n(c3n2)C2(CCCCC2)C(=O)NN4)cc1 [mesylate Pattern 2], the “XRPD form after storage at 40° C./75% RH” value [1] is reported as “converted to Pattern 1”.
In the case of NS(=O)(=O)c1ccc(Nc2ncc3cc4n(c3n2)C2(CCCCC2)C(=O)NN4)cc1.O=C(O)/C=C\C(=O)O [maleate Pattern 5], the “XRPD form after storage at 40° C./75% RH” value ([1]; listed as Maleic Acid Salt Pattern 5) is reported as “converted to Pattern 1*”.
With NS(=O)(=O)c1ccc(Nc2ncc3cc4n(c3n2)C2(CCCCC2)C(=O)NN4)cc1.O=P(O)(O)O [phosphate Pattern 6] the “XRPD form after storage at 40° C./75% RH” value [1] was “formation of amorphous material” and the “XRPD form after storage at 40° C./75% RH” value ([1]; listed as Phosphoric Acid Salt Pattern 6) was “amorphous material”.
For CS(=O)(=O)O.NS(=O)(=O)c1ccc(Nc2ncc3cc4n(c3n2)C2(CCCCC2)C(=O)NN4)cc1 [mesylate Pattern 3], the “XRPD form after storage at 40° C./75% RH” value [1] was “converted to Pattern 1”.
For CC[C@@]1(O)C(=O)OCc2c1cc1n(c2=O)Cc2cc3ccccc3nc2-1 [camptothecin, (S)-4-ethyl-4-hydroxy-1H-pyrano[3′,4′:6,7]indolizino[1,2-b]quinoline-3,14-(4H, 12H)-dione, reference compound], the “cellular proliferation, chemotherapeutic alone compared with Compound I alone” value (H526 cells) was “lower cellular proliferation IC50 values”, the “cellular proliferation, chemotherapeutic alone compared with Compound I alone” value (SHP77 cells) was “lower cellular proliferation IC50 values” and the “cellular proliferation, chemotherapeutic alone compared with Compound I alone” value (H69 (NCIH69) cells) was “lower cellular proliferation IC50 values”.
For CCN1CCN(Cc2ccc(Nc3ncc(F)c(-c4cc(F)c5nc(C)n(C(C)C)c5c4)n3)nc2)CC1 [abemaciclib, reference compound], the cell cycle arrest ([2]; abemaciclib-resistant (LYR) cells) was “substantially less frequently in the G1 phase” and the cell cycle arrest ([2]; parental (PAR) cells) was “arrested parental (PAR) cell lines in the G1 phase”.
In the case of NS(=O)(=O)c1ccc(Nc2ncc3cc4n(c3n2)C2(CCCCC2)C(=O)NN4)cc1.O=S(=O)(O)c1ccccc1 [besylate Pattern 3], the “XRPD form after storage at 40° C./75% RH” value [1] is reported as “loss in crystallinity”.
For Cl.NS(=O)(=O)c1ccc(Nc2ncc3cc4n(c3n2)C2(CCCCC2)C(=O)NN4)cc1 [HCl Pattern 2], the “XRPD form after storage at 40° C./75% RH” value [1] was “No form changes were observed”.
With Br.NS(=O)(=O)c1ccc(Nc2ncc3cc4n(c3n2)C2(CCCCC2)C(=O)NN4)cc1 [HBr Pattern 1] the “XRPD form after storage at 40° C./75% RH” value [1] was “loss of crystallinity”.
For NS(=O)(=O)c1ccc(Nc2ncc3cc4n(c3n2)C2(CCCCC2)C(=O)NN4)cc1.O=C(O)CC(O)(CC(=O)O)C(=O)O [citrate Pattern 1], the “XRPD form after storage at 40° C./75% RH” value ([1]; listed as Citric Acid Salt Pattern 1) was “poorly crystalline material”.
In the case of COc1cccc2c1C(=O)c1c(O)c3c(c(O)c1C2=O)C[C@@](O)(C(=O)CO)C[C@@H]3O[C@H]1C[C@H](N)[C@H](O)[C@H](C)O1 [doxorubicin, reference compound], the “cellular proliferation, chemotherapeutic alone compared with Compound I alone” value (H526 cells) is reported as “better inhibition”, the “cellular proliferation, chemotherapeutic alone compared with Compound I alone” value (SHP77 cells) is reported as “better inhibition” and the “cellular proliferation, chemotherapeutic alone compared with Compound I alone” value (H69 (NCIH69) cells) is reported as “better inhibition”.
For CC(=O)c1c(C)c2cnc(Nc3ccc(N4CCNCC4)cn3)nc2n(C2CCCC2)c1=O [palbociclib, reference compound], the “colony size and percent plate area” value [3] was “cells expanded to cover a large percentage of the plate area”.
With NS(=O)(=O)c1ccc(Nc2ncc3cc4n(c3n2)C2(CCCCC2)C(=O)NN4)cc1.O=C(O)CC(O)(CC(=O)O)C(=O)O [citrate Pattern 2] the “XRPD form after storage at 40° C./75% RH” value ([1]; listed as Citric Acid Salt Pattern 2) was “new poorly crystalline pattern designated Pattern 4”.
In the case of NS(=O)(=O)c1ccc(Nc2ncc3cc4n(c3n2)C2(CCCCC2)C(=O)NN4)cc1.O=C(O)/C=C\C(=O)O [maleate Pattern 4], the “XRPD form after storage at 40° C./75% RH” value ([1]; listed as Maleic Acid Salt Pattern 4) is reported as “converted to Pattern 6”.
For NS(=O)(=O)c1ccc(Nc2ncc3cc4n(c3n2)C2(CCCCC2)C(=O)NN4)cc1.O=C(O)/C=C\C(=O)O [maleate Pattern 2], the “XRPD form after storage at 40° C./75% RH” value ([1]; listed as Maleic Acid Salt Pattern 2) was “loss of crystallinity”.
For CS(=O)(=O)O.NS(=O)(=O)c1ccc(Nc2ncc3cc4n(c3n2)C2(CCCCC2)C(=O)NN4)cc1 [mesylate Pattern 4], the “XRPD form after storage at 40° C./75% RH” value [1] was “converted to Pattern 1”.
